Source: patent publication US10369131B2, “Ultrapure tetrahydrocannabinol-11-oic acids” (Corbus Pharmaceuticals, Inc., priority 2013, dated 2019)

What was measured:
tumor growth = details: doses in the anti-inflammatory range, compared with THC; cited from earlier work
[1] = tested on: neuropathic pain patients; details: man, cited from earlier work
[2] = rat, at peak pharmacodynamic time points; cited from earlier work
CB1 receptor = CB1 receptor (Homo sapiens, UniProt P21554); details: earlier ajulemic acid synthesis products, literature; cited from earlier work
female CD-1 mice [3] = details: oral; AJA reported in U.S. Pat. No. 5,338,753; cited from earlier work
HL-60 cells = test: PGJ synthesis in HL-60 cells (ELISA); format: cell-based
Procedure: The CB2 antagonist SR144528 reduced ultrapure AJA-induced PGJ synthesis in HL60 immune system cells at low concentrations (squares). […] DMSO control (open circles). Treatments of cells was carried out in 48 well plates with 20,000 cells/500 μl RPMI/FCS media/well. Cells were incubated for 20 hrs at 37° C. and 5% CO2. Media was changed to 500 μl of serum free RPMI and TNFα (10 nM) added. […] N=4.

female CD-1 mice [4] = test: Rectal temperature (mouse hypothermia assay)
Procedure: (§1) Compounds were administered at a volume of […] via oral gavage.
(§2) Female CD-1 mice (20-25 g), obtained from Charles River (Raleigh, N.C.), were used for assessment in hot plate nociception, rectal temperature, and ring immobility assays. Separate mice were used for testing each dose of each compound in this battery of procedures. The mice had free access to food and water when in their home cages. All animals were kept in a temperature-controlled (20-22° C.) environment with a 12-hour light-dark cycle (lights on at 7 a.m.).
Each mouse was tested in a battery of three tests, in which cannabinoid CB1 agonists produce in vivo effects in mice (Martin et al., 1991): antinociception (hot plate assay), decreased rectal temperature and ring immobility. Prior to administration of the test compound, rectal temperature and baseline latency in the hot plate test were measured in the mice. The latter procedure involved placing the mouse on a heated surface (mouse cold/hot plate analgesia apparatus; Stoelting, Wood Dale, Ill.) at a setting of 55° C. Time until the mouse lifts or licks a paw was measured, whereupon the mouse was removed from the apparatus. […] Subsequently, the mice were placed on a 5.5 cm ring attached at a height of 16 cm to a ring stand, and the amount of time the animals remained motionless during a 5 min period was recorded. In addition, the number of times the mouse fell or jumped off the ring was recorded. […]
Rectal temperature values were expressed as the difference between control temperature (before injection) and temperature following drug administration (Δ° C.). Antinociception was expressed as the percent maximum possible effect (MPE) using a 30-s maximum test latency as follows: [(test−control)/(30−control)]×100. During assessment for catalepsy, the total amount of time (in seconds) that the mouse remained motionless on the ring apparatus (except for breathing and whisker movement) was measured and was used as an indication of catalepsy-like behavior. […]

female CD-1 mice [5] = test: Mouse hot plate test for antinociception; format: in vivo; details: 60 min after administration
female CD-1 mice [6] = test: Ring immobility (catalepsy) test
Procedure: The cataleptic response was measured using the ring test described by Pertwee (Pertwee R G, The Ring Test. A Quantitative Method of Assessing the Cataleptic Effect of Cannabis in Mice, Br. J. Pharmacol. 46:753-763 (1972)). Mice were placed on a horizontal wire ring 5.5 cm in diameter attached to a 16 cm vertical rod. The hind paws and fore paws were placed at opposite sides of the ring. The ambient temperature was maintained at 30° C. and the environment was free of auditory stimuli and bright lights. The response was calculated as the fraction of time the mouse was immobile over a five (5) minute test period.
A dose response was conducted for ultrapure AJA to oral doses of 0.05 to 56 mg/kg.
as §1, §2
Each mouse was tested in a battery of three tests, in which cannabinoid CB1 agonists produce in vivo effects in mice (Martin et al., 1991): antinociception (hot plate assay), decreased rectal temperature and ring immobility. Prior to administration of the test compound, rectal temperature and baseline latency in the hot plate test were measured in the mice. The latter procedure involved placing the mouse on a heated surface (mouse cold/hot plate analgesia apparatus; Stoelting, Wood Dale, Ill.) at a setting of 55° C. Time until the mouse lifts or licks a paw was measured, whereupon the mouse was removed from the apparatus. […] After measurement of baseline temperature and hot plate latency, mice were administered vehicle or drug via oral gavage. […] Subsequently, the mice were placed on a 5.5 cm ring attached at a height of 16 cm to a ring stand, and the amount of time the animals remained motionless during a 5 min period was recorded. In addition, the number of times the mouse fell or jumped off the ring was recorded. If the mouse fell off the ring more than 5 times, the test was terminated.
Rectal temperature values were expressed as the difference between control temperature (before injection) and temperature following drug administration (Δ° C.). Antinociception was expressed as the percent maximum possible effect (MPE) using a 30-s maximum test latency as follows: [(test−control)/(30−control)]×100. During assessment for catalepsy, the total amount of time (in seconds) that the mouse remained motionless on the ring apparatus (except for breathing and whisker movement) was measured and was used as an indication of catalepsy-like behavior. This value was divided by 300 s and multiplied by 100 to obtain a percent immobility. If the mouse fell off the ring more than 5 times, the test was terminated and ring immobility data for the mouse were not included in analysis. Separate between-subjects ANOVAs were used to analyze each measure. Significant differences from control (vehicle) were further analyzed with Tukey post hoc tests (α=0.05) as necessary.

[7] = oral 30 and 100 mg/kg (both doses), vs vehicle, p<0.05

Sequence of CB1 receptor (P21554 whole entry): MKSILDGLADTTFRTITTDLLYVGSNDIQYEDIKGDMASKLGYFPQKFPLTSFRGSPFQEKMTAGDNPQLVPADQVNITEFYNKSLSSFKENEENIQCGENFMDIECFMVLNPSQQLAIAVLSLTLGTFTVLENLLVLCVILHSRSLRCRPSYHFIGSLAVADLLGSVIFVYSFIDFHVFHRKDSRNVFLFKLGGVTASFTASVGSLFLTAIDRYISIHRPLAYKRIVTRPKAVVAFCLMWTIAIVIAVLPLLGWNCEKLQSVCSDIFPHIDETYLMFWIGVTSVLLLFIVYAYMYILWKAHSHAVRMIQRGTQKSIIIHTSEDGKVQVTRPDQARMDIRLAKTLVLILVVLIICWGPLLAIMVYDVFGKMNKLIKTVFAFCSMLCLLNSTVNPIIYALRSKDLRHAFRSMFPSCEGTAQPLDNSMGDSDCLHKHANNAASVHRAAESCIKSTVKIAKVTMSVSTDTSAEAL

CCCCCCC(C)(C)c1cc(O)c2c(c1)OC(C)(C)[C@@H]1CC=C(C(=O)O)C[C@@H]21 [AJA, (6aR,10aR)-3-(1′,1′-dimethylheptyl)-Δ8-tetrahydro-cannabinol-9-carboxylic acid]
inhibition of tumor growth (tumor growth): small but significant inhibition of tumor growth greater than that produced by THC | cannabis-like psychotropic adverse events ([1]; neuropathic pain patients): absence | pain scores in neuropathic pain patients [1]: reduce pain scores | brain levels relative to those seen in the plasma [2]: 25-30%

CCCCCCC(C)(C)c1cc(O)c2c(c1)OC(C)(C)[C@@H]1CC=C(C(=O)O)C[C@@H]21 [HU-239]
ratio of CB1/CB2 binding (CB1 receptor): 0.19 | doses at which active in the mouse hot plate assay (female CD-1 mice [3]): < 0.5 mg/kg

Cc1c(C(=O)NN2CCCCC2)nn(-c2ccc(Cl)cc2Cl)c1-c1ccc(Cl)cc1 [SR141716]
effect of CB1 antagonist on ultrapure AJA-induced PGJ synthesis (HL-60 cells; antagonist 10 μM, 2 hrs): much smaller effect

COc1ccc2c(c1)c(CC(=O)O)c(C)n2C(=O)c1ccc(Cl)cc1 [indomethacin, reference compound]
rectal temperature (female CD-1 mice [4]; 30 mg/kg oral): did not significantly affect | antinociception in the hot plate test (% MPE) (female CD-1 mice [5]; 30 mg/kg oral): did not significantly affect | ring immobility (female CD-1 mice [6]; 30 mg/kg oral): did not significantly affect

CCCCCc1cc(O)c2c(c1)OC(C)(C)[C@@H]1CCC(C)=C[C@@H]21 [Δ9-THC, reference compound]
hypothermia (rectal temperature) (female CD-1 mice [4]; [7]): produced significant | antinociception in the hot plate test (% MPE) (female CD-1 mice [5]; oral 100 mg/kg only, vs vehicle, p<0.05): produced significant antinociception | ring immobility (female CD-1 mice [6]; [7]): produced significant

SR144528
effect of CB2 antagonist on ultrapure AJA-induced PGJ synthesis (HL-60 cells): reduced
